Reference: PubChem BioAssay AID330 (DTP/NCI, 2004)
Several values for one entry are separate records, joined by “and”; a condition that tells them apart may be missing. Identical values can stand only once. Toxic doses and inconclusive results are not listed.

System: P388 leukemia ip, CD2F1 mice, survival T/C
Assay: NCI In Vivo Anticancer Drug Screen. Data for tumor model P388 Leukemia (intraperitoneal) in CD2F1 (CDF1) mice
Settings: endpoint: median survival time, higher = longer survival
Method in brief: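 Mice carrying the transplanted tumor received test compound or vehicle. Survival was recorded in each group, and the value is the treated-group measurement divided by that of the vehicle-treated control group.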

[1] = dose: 50.0 mg/kg/injection, schedule: Q01DX009 (ip), vehicle: saline
[2] = dose: 100.0 mg/kg/injection, schedule: Q01DX009 (ip), vehicle: saline
[3] = dose: 200.0 mg/kg/injection, schedule: Q01DX009 (ip), vehicle: saline
[4] = dose: 25.0 mg/kg/injection, schedule: Q01DX009 (ip), vehicle: saline with Tween-80
[5] = dose: 50.0 mg/kg/injection, schedule: Q01DX009 (ip), vehicle: saline with Tween-80
[6] = dose: 100.0 mg/kg/injection, schedule: Q01DX009 (ip), vehicle: saline with Tween-80
[7] = dose: 200.0 mg/kg/injection, schedule: Q01DX009 (ip), vehicle: saline with Tween-80
[8] = dose: 50.0 mg/kg/injection, schedule: Q01DX009 (ip), vehicle: Klucel (hydroxypropylcellulose) (HPC)
[9] = dose: 60.0 mg/kg/injection, schedule: Q01DX005 (ip), vehicle: saline with Tween-80

## C=CCC(CC)(C(=O)Nc1ccc2nc(C)cc(N)c2c1)C(=O)Nc1ccc2nc(C)cc(N)c2c1
dose: 6.25 mg/kg/injection, schedule: Q01DX005 (ip), vehicle: saline with Tween-80
  T/C: 94 % of control
dose: 12.5 mg/kg/injection, schedule: Q01DX005 (ip), vehicle: saline with Tween-80
  T/C: 89 % of control
dose: 100.0 mg/kg/injection, schedule: Q01DX005 (ip), vehicle: saline with Tween-80
  T/C: 87 % of control
dose: 200.0 mg/kg/injection, schedule: Q01DX005 (ip), vehicle: saline with Tween-80
  T/C: 96 % of control

## Cc1cccn2cnnc12
[1]
  T/C: 119 % of control
[2]
  T/C: 119 % of control
[3]
  T/C: 117 % of control

## CC(C)N1CSC(=S)N(Cc2ccccc2)C1
[4]
  T/C: 107 % of control
[5]
  T/C: 97 % of control and 98 % of control
[6]
  T/C: 93 % of control and 98 % of control
[7]
  T/C: 89 % of control

## N#Cc1ccc(OCCCCCOc2ccc(C#N)cc2)cc1
[4]
  T/C: 108 % of control
[5]
  T/C: 100 % of control
[6]
  T/C: 97 % of control
[7]
  T/C: 99 % of control

## CSc1cccc(NC(=O)OCCOc2ccc(Cl)c(C)c2)c1
[8]
  T/C: 92 % of control
dose: 100.0 mg/kg/injection, schedule: Q01DX009 (ip), vehicle: Klucel (hydroxypropylcellulose) (HPC)
  T/C: 97 % of control
dose: 200.0 mg/kg/injection, schedule: Q01DX009 (ip), vehicle: Klucel (hydroxypropylcellulose) (HPC)
  T/C: 92 % of control

## CCC(c1ccc(OCC(=O)NCCCl)cc1)C(CC)c1ccc(OCC(=O)NCCCl)cc1 (configuration not stated)
[1]
  T/C: 97 % of control
[2]
  T/C: 93 % of control
[3]
  T/C: 88 % of control

## C/C=C(\CC[Se]c1ccccc1)C(=O)OC
dose: 50.0 mg/kg/injection, schedule: Q01DX009 (ip), vehicle: distilled water + Tween-80 + alcohol
  T/C: 108 % of control
dose: 100.0 mg/kg/injection, schedule: Q01DX009 (ip), vehicle: distilled water + Tween-80 + alcohol
  T/C: 98 % of control
dose: 200.0 mg/kg/injection, schedule: Q01DX009 (ip), vehicle: distilled water + Tween-80 + alcohol
  T/C: 106 % of control

## CCOS(=O)c1ccc(C)cc1 (configuration not stated)
dose: 12.5 mg/kg/injection, schedule: Q01DX009 (ip), vehicle: Klucel (hydroxypropylcellulose) (HPC)
  T/C: 98 % of control
dose: 25.0 mg/kg/injection, schedule: Q01DX009 (ip), vehicle: Klucel (hydroxypropylcellulose) (HPC)
  T/C: 98 % of control
[8]
  T/C: 105 % of control and 110 % of control

## CCCCCCCCCCCCCCCCCSc1c(O)c(O)c2cccnc2c1O (tested in a mixture with another compound)
dose: 60.0 mg/kg/injection, schedule: Q01DX005 (ip), vehicle: Klucel (hydroxypropylcellulose) (HPC)
  T/C: 104 % of control
dose: 120.0 mg/kg/injection, schedule: Q01DX005 (ip), vehicle: Klucel (hydroxypropylcellulose) (HPC)
  T/C: 105 % of control

## C(=C\c1csnn1)/c1ccc(/C=C/c2csnn2)cc1
[9]
  T/C: 100 % of control
dose: 120.0 mg/kg/injection, schedule: Q01DX005 (ip), vehicle: saline with Tween-80
  T/C: 100 % of control
dose: 240.0 mg/kg/injection, schedule: Q01DX005 (ip), vehicle: saline with Tween-80
  T/C: 100 % of control

## O=C1CC2(C(=O)N1CN1CCN(c3ccc(F)cc3)CC1)c1ccccc1-c1ccccc12 (tested in a mixture with another compound)
dose: 100.0 mg/kg/injection, schedule: Q04DX003 (ip), vehicle: saline with Tween-80
  T/C: 90 % of control

## Cc1ccccc1CC(C)c1ccccc1 (configuration not stated)
[5]
  T/C: 100 % of control
[6]
  T/C: 123 % of control

## O=S(=O)(F)/C=C/c1ccccc1
[5]
  T/C: 109 % of control
[6]
  T/C: 109 % of control

## CC(/C=N\NC(=S)SCc1ccccc1)=N/N=C(N)N
dose: 6.25 mg/kg/injection, schedule: Q01DX009 (ip), vehicle: saline with Tween-80
  T/C: 101 % of control
dose: 12.5 mg/kg/injection, schedule: Q01DX009 (ip), vehicle: saline with Tween-80
  T/C: 95 % of control
[4]
  T/C: 101 % of control
[1]
  T/C: 91 % of control
[2]
  T/C: 92 % of control

## COc1ccc(C(c2c(O)c3ccccc3oc2=O)N2CCCC2)cc1 (configuration not stated)
dose: 15.0 mg/kg/injection, schedule: Q01DX005 (ip), vehicle: saline with Tween-80
  T/C: 100 % of control
dose: 30.0 mg/kg/injection, schedule: Q01DX005 (ip), vehicle: saline with Tween-80
  T/C: 100 % of control
[9]
  T/C: 103 % of control and 97 % of control

## CCOP(=O)(OCC)C1CCCN2CCc3cc(OC)c(OC)cc3C12 (configuration not stated)
[1]
  T/C: 91 % of control
[2]
  T/C: 98 % of control
[3]
  T/C: 95 % of control

## CN(C)CC(O)c1ccc2ccc3ccccc3c2c1 (configuration not stated)
dose: 100.0 mg/kg/injection, schedule: Q01DX001 (ip), vehicle: Klucel (hydroxypropylcellulose) (HPC)
  T/C: 102 % of control
dose: 200.0 mg/kg/injection, schedule: Q01DX001 (ip), vehicle: Klucel (hydroxypropylcellulose) (HPC)
  T/C: 101 % of control
dose: 400.0 mg/kg/injection, schedule: Q01DX001 (ip), vehicle: Klucel (hydroxypropylcellulose) (HPC)
  T/C: 101 % of control

## CCN(CC)c1ccc2cc(S(=O)(=O)c3ccc(C)cc3)c(=O)oc2c1
dose: 50.0 mg/kg/injection, schedule: Q01DX005 (ip), vehicle: saline with Tween-80
  T/C: 96 % of control
